This note sets out measurements from BindingDB's records for doi:10.1016/j.bmcl.2005.05.131 (Naeja Pharmaceutical, 2005).

Assay [1] has as its target T1, Cyclin-dependent kinase 4/G1/S-specific cyclin-D1 [L188C] (Homo sapiens, UniProt P11802). The assay is described as follows: CDKs Assay.
Assay [2] concerns the target T1, Cyclin-dependent kinase 4/G1/S-specific cyclin-D1 [L188C].

One may read the IC50 as the concentration needed to halve the response being measured. Read a low IC50 as higher potency. On to `COc1ccc2cnc(Nc3ccc(N4CCN(C(C)=O)CC4)cc3)nc2c1C1CCCC1` [1-(4-{4-[(8-cyclopentyl-7-methoxyquinazolin-2-yl)amino]phenyl}piperazin-1-yl)ethan-1-one], for which inhibition in assay [1] was half-maximal at 2 nM (IC50). This lies in the single-digit nanomolar range.
`COc1ccc2cnc(Nc3ccc(N4CCN(C(C)=O)CC4)cc3)nc2c1C(C)C` [1-[4-(4-{[7-methoxy-8-(propan-2-yl)quinazolin-2-yl]amino}phenyl)piperazin-1-yl]ethan-1-one] returned an IC50 in assay [2] of 25 nM.
With `CC(C)c1c(O)ccc2cnc(Nc3ccccc3)nc12` [2-(phenylamino)-8-(propan-2-yl)quinazolin-7-ol], in assay [1], inhibition was half-maximal at 325 nM (IC50). In other words, the sub-micromolar range.
The same measure, in the same setting: to `COc1ccc2cnc(Nc3ccc(N4CCN(C(=O)CN)CC4)cc3)nc2c1C1CCCC1` [2-amino-1-(4-{4-[(8-cyclopentyl-7-methoxyquinazolin-2-yl)amino]phenyl}piperazin-1-yl)ethan-1-one] belongs 2 nM.
`COc1ccc2cnc(Nc3ccc(N4CCN(C(=O)CN)CC4)cc3)nc2c1C(C)C` [2-amino-1-[4-(4-{[7-methoxy-8-(propan-2-yl)quinazolin-2-yl]amino}phenyl)piperazin-1-yl]ethan-1-one] returned a 50% inhibitory concentration (IC50) in assay [1] of 10 nM.
`COc1ccc2cnc(Nc3ccc(N4CCCC4)cc3)nc2c1C(C)C` [7-methoxy-8-(propan-2-yl)-N-[4-(pyrrolidin-1-yl)phenyl]quinazolin-2-amine] showed an IC50 in assay [2] of 560 nM.
On to `COc1ccc2cnc(Nc3ccc(N4CCOCC4)cc3)nc2c1C(C)C` [7-methoxy-N-[4-(morpholin-4-yl)phenyl]-8-(propan-2-yl)quinazolin-2-amine], for which, in assay [2], half-maximal inhibition (IC50) was put at 52 nM.
Same read-out and setting: for `COc1ccc2cnc(Nc3ccc(N4CCNCC4)cc3)nc2c1C(C)C` [7-methoxy-N-[4-(piperazin-1-yl)phenyl]-8-(propan-2-yl)quinazolin-2-amine] the value was 16 nM; for `COc1ccc2cnc(Nc3ccc(N4CCCCC4)cc3)nc2c1C(C)C` [7-methoxy-N-[4-(piperidin-1-yl)phenyl]-8-(propan-2-yl)quinazolin-2-amine], 52 nM.
The same measure, in the same setting: for `COc1ccc2cnc(Nc3ccccc3)nc2c1C(C)C` [7-methoxy-N-phenyl-8-(propan-2-yl)quinazolin-2-amine] the value was 125 nM.
Consider `COc1ccc2cnc(Nc3ccc(N4CCOCC4)cc3)nc2c1C1CCCC1` [8-cyclopentyl-7-methoxy-N-[4-(morpholin-4-yl)phenyl]quinazolin-2-amine], for which inhibition in assay [1] was half-maximal at 18 nM (IC50).
On the same count and under the same terms, to `COc1ccc2cnc(Nc3ccc(N4CCNCC4)cc3)nc2c1C1CCCC1` [8-cyclopentyl-7-methoxy-N-[4-(piperazin-1-yl)phenyl]quinazolin-2-amine] belongs 1 nM; to `COc1ccc2cnc(Nc3ccc(N4CCCCC4)cc3)nc2c1C1CCCC1` [8-cyclopentyl-7-methoxy-N-[4-(piperidin-1-yl)phenyl]quinazolin-2-amine], 11 nM; to `COc1ccc2cnc(Nc3ccc(N4CCCC4)cc3)nc2c1C1CCCC1` [8-cyclopentyl-7-methoxy-N-[4-(pyrrolidin-1-yl)phenyl]quinazolin-2-amine], 1750 nM.
Still for that read-out and setting: to `COc1ccc2cnc(Nc3ccc(N4CCNCC4)c(F)c3)nc2c1C1CCCC1` [8-cyclopentyl-N-[3-fluoro-4-(piperazin-1-yl)phenyl]-7-methoxyquinazolin-2-amine] belongs 4 nM.
Regarding `COc1ccc2cnc(Nc3ccc(N4CCC(N)C4)cc3)nc2c1C(C)C` (configuration not stated) [N-[4-(3-aminopyrrolidin-1-yl)phenyl]-7-methoxy-8-(propan-2-yl)quinazolin-2-amine], the concentration for half-maximal inhibition (IC50) in assay [2] came to 11 nM.
Regarding `COc1ccc2cnc(Nc3ccc(N4CCC(N)C4)cc3)nc2c1C1CCCC1` (configuration not stated) [N-[4-(3-aminopyrrolidin-1-yl)phenyl]-8-cyclopentyl-7-methoxyquinazolin-2-amine], the IC50 in assay [1] amounted to 115 nM.
